*1 amine or outer side, *2 acyl side, *3 side chain or, on linkers, in order; H or OH if unused. Where a SMILES comes first, the peptide text is derived from it. Bridges are numbered along the chain shown (N, C = ends). [ ]: non-standard residue; d: D form. The star is where a group is joined. Ala(1-(4-CO-Ph)triazol-4-yl) = O=C([C@H](Cc1cn(-c2ccc(C(=O)[*:3])cc2)nn1)N[*:1])[*:2]; X1 = O=C(O)CN1CCN(CC(=O)O)CCN([C@H](CCC(=O)*)C(=O)O)CC1; X2 = Cc1ccc(CCCC(=O)NCCCC[C@H](N*)C(N)=O)cc1; AEEA = NCCOCCOCC(=O)O
Assays:
MPC cells = assay: Cell binding and uptake (internalization) in MPC cells; assay type: cell-based, mouse
Method: Furthermore, the receptor-mediated endocytosis (referred to as internalization) of the novel compounds was assessed. The values for the internalized fraction (or “acid wash” resistant fraction) were >50% (Figure S5), which might indicate a similar pharmacological behavior of these ligands upon binding to SST2 as the parent ligand TATE.
Cell binding and uptake were measured as previously described. , MPC cells were seeded into collagen-coated 24-well microplates and cultivated for 4 days. All washing steps were performed using PBS containing 0.9 mM CaCl2 and 0.5 mM MgCl2. Total radioligand uptake was measured after incubation with the radioligand (A m = 30 GBq/μmol) at a final concentration of 20 nM in RPMI 1640 medium with GlutaMAX supplement (Thermo Fisher Scientific) for 1 h at 37 and 4 °C. Nonspecific binding was determined in the presence of 20 μM Acetyl-TATE. The uptake fraction was measured after acid wash of cell surface-bound radioligand with wash buffer containing 0.05 M glycine, pH 2.8, for 5 min. The activity of cell homogenates was measured using the γ counter Wizard (PerkinElmer). The protein content of cell homogenates was measured as described above.
Figure S5: Cell binding data
Data shown in A and B are mean values (±SD) of one experiment (NODAGA-cLAB(5/6)- TATE and NODAGA-cLAB4-scrTATE) or 3 experiments (±SEM, DOTA-EB-TATE), which were performed in sextuplicate. In C, the amount of specific “internalized” (acid resistant) radioligand (red bars in A, mean values) is expressed as percentage of specific total -bound radioligand (blue bars in A, mean values). The difference to 100% was assigned to “surface - bound” radioligand. For a better overview, the compound names were abbreviated. […]
specific binding of radioligand
Incubation at 37°C for 1 h
(% dose/mg of protein) Washing with
Incubation at 4°C for 1 h […]
(1 picture or pasted object on this page, not shown here)

[1] = Plasma stability assay, human plasma; assay type: in vitro ADME; conditions: 37 °C, up to 24 h, single experiment, read-out: t1/2 (plasma), human
Excerpt: Previously, we discovered that the ^64Cu-labeled NODAGA-cLAB-TATEs with a primary amide functionality within the albumin-binding moiety are subject to a metabolic transformation in mouse plasma. In fact, the primary amide is slowly hydrolyzed to the carboxylic acid, which turned out to be catalyzed by plasma carboxylesterases as proven by blocking this transformation in the presence of bis-para-nitrophenylphosphate. […] As this transformation entails also an increase in the binding affinity to albumin, there might be effects on the biodistribution in mice, in particular the blood circulation time. To investigate this, NODAGA-cLAB6-TATE was designed, with cLAB6 (N3Bz-D-Lys(MPB)-NH2) representing the D-configured pendant of cLAB4 (N3Bz-L-Lys(MPB)-NH2). […] However, the apparent half-lives for both compounds (≈13 and >24 h) are longer compared to the half-lives previously determined for [ ^ 64 Cu]-Cu-NODAGA-cLAB3-TATE and [ ^ 64 Cu]-Cu-NODAGA-cLAB4-TATE (≈6 and ≈3 h, respectively). […]
Plasma stability of the radioligands was done as previously described for NODAGA-cLAB-TATE and NODAGA-NES-TATEs. , Briefly, an aliquot of the radioligand was added to plasma and stability was assessed at different time points by withdrawing an aliquot, followed by protein precipitation and analysis by radio-HPLC.

In the case of `Cc1ccc(CCCC(=O)NCCCC[C@H](NC(=O)c2ccc(-n3cc(C[C@H](NC(=O)CC[C@H](C(=O)O)N4CCN(CC(=O)O)CCN(CC(=O)O)CC4)C(=O)NCCOCCOCC(=O)N[C@@H](CCCCN)C(=O)N[C@H]4CSSC[C@@H](C(=O)N[C@H](C(=O)O)[C@@H](C)O)NC(=O)[C@@H](Cc5c[nH]c6ccccc56)NC(=O)[C@@H](Cc5ccccc5)NC(=O)[C@H]([C@@H](C)O)NC(=O)[C@H](Cc5ccc(O)cc5)NC4=O)nn3)cc2)C(N)=O)cc1` [[64Cu]Cu-NODAGA-cLAB4-scrTATE, metal not drawn] (X1-[Ala(1-(4-CO-Ph)triazol-4-yl)](X2)[AEEA]KCYT[dF][dW]CT-OH; disulfide 4-9), the “binding in the cell binding and uptake assay” value (MPC cells; MPC cells, 20 nM, 1 h) is reported as “no binding at all”, the “specific binding of radioligand” value (MPC cells; incubation at 4 °C for 1 h, washing with PBS pH 7.4, 20 nM) is reported as 0.01 % dose/mg of protein and the “specific binding of radioligand” value (MPC cells; incubation at 4 °C for 1 h, washing with glycine buffer pH 2.8, 20 nM) is reported as 0.03 % dose/mg of protein. For the same molecule, the “specific binding of radioligand” value (MPC cells; incubation at 37 °C for 1 h, washing with PBS pH 7.4 (total bound), 20 nM) was 0.02 %dose/mg of protein, the “specific binding of radioligand” value (MPC cells; incubation at 37 °C for 1 h, washing with glycine buffer pH 2.8 (acid resistant), 20 nM) was 0.04 %dose/mg of protein and the half-life [1] was > 24 h.
